Like-named read-outs stand apart in the source and are kept apart here.
Tests used:
Details in all cases: PKIS2 primary screening
endogenous TFEB = assay: TFEB nuclear translocation, immunocytochemistry high-content imaging; format: cell-based
endogenous TFE3 = assay: TFE3 nuclear translocation, immunocytochemistry high-content imaging; format: cell-based
SH-SY5Y cells [1] = system: SH-SY5Y cells; note: reference of the scale not given here
SH-SY5Y cells [2] = assay: AK (adenylate kinase) release ToxiLight cytotoxicity assay; note: reference of the scale not given here
SH-SY5Y cells [3] = assay: Nuclear count from microscopy images (cellular growth and toxicity); note: reference of the scale not given here

Row | SMILES | TFEB % (endogenous TFEB) [%] | TFE3 % (endogenous TFE3) [%] | DQ Intensity (SH-SY5Y cells [1]) | DQ Spot (SH-SY5Y cells [1]) | AK (SH-SY5Y cells [2]) | Nuclear Count (SH-SY5Y cells [3]) | DQ Intensity (SH-SY5Y cells [1]; DQ Red BSA intensity) | DQ Spot (SH-SY5Y cells [1]; DQ Red BSA spot count)
1 | Cc1cccc(Nc2nc(N[C@H]3CCNC3)ncc2C(N)=O)c1.Cl [UNC10225356A] | 10.40 | 8.51 | 128.58 | 110.55 | 117.33 | 97.71 | – | –
2 | Cc1cc(-c2c(-c3ccc(F)cc3)ncn2CCCN2CCOCC2)nc(N)n1 [UNC10225357A] | 6.16 | 18.76 | 102.69 | 106.97 | 146.53 | 103.52 | – | –
3 | Clc1ccc(-c2nn3ncccc3c2-c2ccnc(Nc3ccc4c(c3)OCCO4)n2)cc1 [UNC10225358A] | 8.16 | 11.64 | 88.44 | 98.66 | 157.53 | 125.14 | – | –
4 | Cc1ccc(NC(=O)Nc2ccc(Cl)c(C(F)(F)F)c2)cc1-c1ccc(C(=O)Nc2ccncc2)cc1 [UNC10225359A] | 9.28 | 18.34 | 70.67 | 82.92 | 88.88 | 100.74 | – | –
5 | Oc1ccc2ncnc(Nc3ccc(OCc4ccccc4)cc3)c2c1 [UNC10225360A] | 5.47 | 13.64 | – | – | 98.47 | 101.58 | 120.31 | 114.21
6 | CC(C)(C)n1cnc2c(N)ncnc21 [UNC10225362A] | 5.16 | 7.46 | 122.93 | 124.24 | 102.90 | 45.84 | – | –
7 | CC(C)(C)c1ccc(-n2cnc3c(N)ncnc32)cc1 [UNC10225367A] | 8.78 | 12.53 | 128.98 | 104.53 | 79.86 | 71.05 | – | –
8 | Nc1ncc(-c2cccnc2)c2scc(-c3ccc4c(c3)CCN4C(=O)Cc3ccccc3)c12 [UNC10225369A] | 3.58 | 19.63 | – | – | 64.72 | 102.35 | 84.54 | 86.78
9 | CCn1cnc2c(NCc3ccccc3)ncnc21 [UNC10225370A] | 4.85 | 13.91 | 98.37 | 103.57 | 79.45 | 102.90 | – | –
10 | COc1cc2ncn(-c3cc(OCC4CCCO4)c(C(N)=O)s3)c2cc1OC (stereo not drawn) [UNC10225372A] | 6.13 | 10.50 | 86.61 | 87.29 | 162.91 | 102.24 | – | –
11 | CN1CCN(CCCNc2nccc(-c3c(-c4ccc(F)cc4)nn4cc(C(F)(F)F)ccc34)n2)CC1 [UNC10225376A] | 5.73 | 16.03 | 120.10 | 102.44 | 108.97 | 97.99 | – | –
12 | Cl.c1ccc(Cn2cnc3cc(Nc4ncnc5ccccc45)ccc32)cc1 [UNC10225378A] | 2.97 | 16.85 | – | – | 86.98 | 84.68 | 110.75 | 119.25
13 | NS(=O)(=O)c1cccc(-c2ccc3nccc(-c4cccc(S(N)(=O)=O)c4)c3c2)c1 [UNC10225379A] | 4.73 | 17.04 | – | – | 131.37 | 79.09 | 88.37 | 88.03
14 | Fc1ccc(-c2ncn(CCCN3CCOCC3)c2-c2ccccn2)cc1 [UNC10225382A] | 3.28 | 18.86 | – | – | 83.54 | 93.57 | 121.86 | 115.12
15 | COc1cc2ncn(-c3cc(OCc4ccncc4Br)c(C(N)=O)s3)c2cc1OC [UNC10225386A] | 6.47 | 3.25 | 93.85 | 100.07 | 64.35 | 97.54 | – | –
16 | Cc1ccc(NC(=O)Nc2ccc(Cl)cc2)cc1-c1ccc(C(=O)Nc2ccncc2)cc1 [UNC10225388A] | 7.90 | 28.63 | 98.78 | 97.95 | 83.48 | 82.28 | – | –
17 | CCCCCc1nc2c(N)ncnc2n1CCCCC [UNC10225389A] | 4.57 | 10.63 | 103.02 | 109.08 | 96.98 | 110.88 | – | –
18 | CCn1c(-c2nonc2N)nc2c(C#CC(C)(C)O)ncc(OCCCCN)c21.O=C(O)C(F)(F)F.O=C(O)C(F)(F)F [UNC10225393A] | 2.26 | 10.89 | 115.98 | 109.86 | 69.12 | 121.84 | – | –

Row | SMILES | TFEB % (endogenous TFEB) [%] | TFE3 % (endogenous TFE3) [%] | DQ Intensity (SH-SY5Y cells [1]) | DQ Spot (SH-SY5Y cells [1]) | AK (SH-SY5Y cells [2]) | Nuclear Count (SH-SY5Y cells [3]) | DQ Intensity (SH-SY5Y cells [1]; DQ Red BSA intensity) | DQ Spot (SH-SY5Y cells [1]; DQ Red BSA spot count)
19 | Cc1ccc(NC(=O)Nc2ccccc2F)cc1-c1ccc(C(=O)Nc2ccncc2)cc1 [UNC10225398A] | 7.18 | 17.53 | 90.99 | 98.29 | 135.60 | 104.03 | – | –
20 | NS(=O)(=O)c1cccc(-c2ccc3ncc(N4CCOCC4)nc3c2)c1 [UNC10225400A] | 4.14 | 6.51 | – | – | 95.42 | 118.72 | 83.02 | 88.90
21 | Cc1c(Cn2c(C)nn3c(=O)cc(N4CCO[C@H](C)C4)nc23)cccc1C(F)(F)F [UNC10225403A] | 3.43 | 10.58 | 146.49 | 116.83 | 91.29 | 94.79 | – | –
22 | CN1C(=O)C(Nc2ccc(Cl)c(C(=O)O)c2)=C(c2ccc(Cl)cc2)C1=O [UNC10225406A] | 3.59 | 10.12 | – | – | 75.31 | 91.26 | 120.55 | 105.90
23 | CCn1c(-c2ccccc2)nc2cnccc21 [UNC10225407A] | 8.26 | 8.88 | 107.17 | 104.42 | 88.86 | 99.61 | – | –
24 | Nc1ncnc2c1ncn2-c1cccc2ccccc12 [UNC10225410A] | 7.46 | 8.71 | 80.92 | 97.35 | 106.56 | 88.30 | – | –
25 | COc1ccc(-n2cnc3c(N)ncnc32)cc1 [UNC10225413A] | 5.09 | 13.51 | 106.51 | 108.81 | 68.21 | 102.02 | – | –
26 | Cc1cn2c(=O)cc(N3CCOCC3)nc2n1Cc1cccc(Cl)c1Cl [UNC10225415A] | 6.30 | 10.27 | 62.82 | 98.81 | 43.75 | 117.08 | – | –
27 | CSc1nn2c(=O)cc(N3CCOCC3)nc2n1Cc1cccc(C(F)(F)F)c1C [UNC10225417A] | 3.46 | 6.63 | 90.90 | 96.76 | 90.24 | 112.74 | – | –
28 | Fc1ccc(-c2nc[nH]c2-c2ccncc2)cc1 [UNC10225418A] | 7.46 | 16.61 | – | – | 94.96 | 56.56 | 103.88 | 114.99
29 | Cl.Cl.Cl.Fc1ccc(-c2ncn(C3CCNCC3)c2-c2ccnc(Nc3ccccc3)n2)cc1 [UNC10225420A] | 8.15 | 15.52 | 95.71 | 100.38 | 105.24 | 78.56 | – | –
30 | Cl.Cl.Cl.Fc1ccc(-c2ncn(C3CCNCC3)c2-c2ccnc(Nc3ccccc3)n2)cc1 [UNC10225420B] | 2.15 | 11.83 | 154.30 | 110.72 | 83.09 | 69.94 | – | –
31 | Cl.Fc1ccccc1COc1ccc(Nc2ncnc3ccc(-c4nnc(C(F)(F)F)o4)cc23)cc1Cl [UNC10225422A] | 3.54 | 5.47 | – | – | 104.09 | 121.67 | 100.75 | 98.62
32 | CSc1nccc(-c2c(-c3ccc(F)cc3)ncn2CCCN2CCOCC2)n1.Cl [UNC10225426A] | 11.69 | 5.71 | 91.90 | 91.96 | 81.99 | 113.07 | – | –
33 | CS(=O)(=O)Nc1ccc(-c2ccnc3[nH]ccc23)cc1 [UNC10225427A] | 2.64 | 8.99 | – | – | 106.42 | 134.12 | 61.89 | 80.51
34 | Nc1nc(-c2nccs2)c(-c2ccnc3ccccc23)s1 [UNC10225429A] | 3.83 | 19.15 | – | – | 94.26 | 118.67 | 102.85 | 117.25
35 | COc1cc(Nc2nccc(-c3c(-c4cccc(NC(=O)c5c(F)cccc5F)c4)nn4ncccc34)n2)cc(OC)c1OC [UNC10225433A] | 23.04 | 17.61 | 122.13 | 59.34 | 102.19 | 35.61 | – | –
